Earlier results, collected in patent US20200078455A1, “MESOTHELIN VACCINE FOR OVARIAN CANCER PREVENTION” (SRI INTERNATIONAL, priority 2017, published 2020).

Row | Molecule | recurrence rate (compared with women who received a placebo) | immune response (women with ovarian cancer) | survival (women with ovarian cancer)
1 | Oregovomab | no difference in the recurrence rate | elicit an immune response | 
2 | Abagovomab (antibody, chains of the INN, looked up, V domains shown, ovarian cancer vaccine that has been studied) VH: QVKLQESGAELARPGASVKLSCKASGYTFTNYWMQWVKQRPGQGLDWIGAIYPGDGNTRYTHKFKGKATLTADKSSSTAYMQLSSLASEDSGVYYCARGEGNYAWFAYWGQGTTVTVSS VL: DIELTQSPASLSASVGETVTITCQASENIYSYLAWHQQKQGKSPQLLVYNAKTLAGGVSSRFSGSGSGTHFSLKIKSLQPEDFGIYYCQHHYGILPTFGGGTKLEIK |  | elicit an immune response | not clear that this leads to longer survival
